The values that follow come from patent US20190218170A1, “BRANCHED TRIALKYLAMINE PRECURSORS, INTERMEDIATES, PRODUCTS MADE THEREFROM AND PROCESSES OF MANUFACTURE” (priority 2018, published 2019).

A short description of data set [1]: Stain removal in cold water, brightness L*. The settings on record: compared to LAO; additive 0.05% active. The protocol:
Amine oxides with linear and branched hydrophobes were compared in a screen for stain removal in cold water. Simple laundry liquid formulations were made that included only surfactants and builder.
Standard stain swatches were purchased from Testfabrics, Inc. (West Pittston, Pa.). STC/CFT PC-S-216 is diluted red lipstick on poly/cotton (65/35), and STC/CFT PC-S-132 is high discriminative sebum (synthetic) with pigment on poly/cotton, both made by Center for Testmaterials BV (CFT; The Netherlands). The swatches were pre-cut into 2 inch squares. The test formulation was diluted with DI water to 0.06% total surfactant to make the wash solution. Additives were added at a final concentration of 0.05% active in the wash solution. Stained fabric swatches were added to the wash solution, washed and rinsed at 20° C., and air-dried. The average swatch brightness (L*) for each treatment, and standard deviation, are reported for 3 replicates. […] All treatments are brighter than the untreated stain swatches. The nonionics NPE and LAE7 removed the lipstick and sebum stains to the same brightness.

Data set [2] is described as follows: Foam height, high shear (Waring blender). Particulars: for Foam volume (ml) 5 min / Foam volume (ml) Initial: 0.05 wt % in deionized water; for Foam volume (ml) 5 min: after 5 minutes; for Foam volume (ml) Initial: blended on High 30 seconds; for % decrease: foam volume, initial to 5 min. It counts as physicochemical. As to the method: A 0.05 wt % (actives basis) solution of the test surfactant was made in deionized water. 250 ml of the test solution was added the beaker of a Waring blender, capped, and then blended on High for 30 seconds and immediately transferred to a 1 L graduated cylinder. The total volume of foam plus liquid, as well as the liquid layer alone was recorded. The foam and liquid volumes were recorded again after 5 minutes.

The nature of data set [3]: Draves Wetting Test (ASTM D2281-68). It is filed as physicochemical. The settings on record: 0.05 wt % (actives basis) in DI water; average of 3 measurements. As to the method: A 0.05 wt % (actives basis) solution of amine oxide in deionized (DI) water was used to determine the Draves wet-out time (WOT) in seconds. 0.75 g of surfactant was dispersed in 1,500 ml of DI water. The wet-out time (WOT) in seconds is recorded in Table 14 (average of 3 measurements). LAO is Lauramine oxide (linear hydrophobe), Sigma catalog number 40236.

Data set [4] is described as follows: Salt thickening, viscosity of SLS/SLES/amine oxide formulation. It is filed as physicochemical. Particulars: shear rate 3/s. As to the method: Linear amine oxides tend to increase the viscosity of a formulation containing NaCl in a dose-dependent manner. The viscosity (cP; shear rate 3/s) of a simple formulation was measured as the salt concentration varied from 0 to 5 wt %.

In data set [5] the test system is zein protein. The text has this:
Amine oxides with linear and branched hydrophobes from Examples 65 and 66 were compared in a screen to predict mildness of surfactants. There is a correlation between the ability of a surfactant to denature a protein and the skin irritation potential of that surfactant. The relationship is believed to result from surfactant binding to proteins like keratin, followed by the denaturation of these proteins, leading to skin irritation. A common screening test involves measuring the amount of zein (a corn protein which is insoluble in water) solubilized by a surfactant solution, the Zein Solubilization Test (Moore et al., 2003 and references therein)
For the test, 0.0750 g of zein protein is transferred into a 1.5 mL centrifuge tube. To this 1.5 mL of 1% surfactant solution is added, mixed, and placed in a 30 C incubator with mild stirring for 30 minutes. After 30 minutes has elapsed, the tube is centrifuged for 30 min at 3600 rpm. The solution is filtered through a pre-weighed 8 micron filter paper, and then dried overnight in a 50° C. oven. The insoluble zein residue is then weighed and the wt % Zein dissolved is calculated using the equation below. Each solution is analyzed in triplicate. The Zein score is normalized to a standard included in each set of tests, in this case LAE10.
% zein dissolved=(total zein added−total zein after drying Total zein added)×100

A short description of data set [6]: Foaming of amine oxide added to commercial laundry liquid (Waring blender). More on the design: Difference: unit: ml. It is filed as physicochemical. The settings on record: for Difference: initial minus 5 min foam volume. The protocol: The surface foam volume and foam persistence of solutions of the amine oxides with linear and branched hydrophobes from Examples […] were compared. A commercial laundry liquid was diluted in deionized water according to the dosing instructions; 4.2 ml/L Persil Original. The diluted detergent was supplemented with 0%, 2%, 5% (based on wt laundry liquid) of LAO or Branched C12 AO, (2,4-diethyl-N,N-dimethyloctan-1-amine oxide, Example 66), and the solutions mixed briefly and used immediately. 250 ml of each test solution was added the beaker of a Waring blender, capped, and then blended on High for 30 seconds and immediately transferred to a 1 L graduated cylinder. The total volume of foam plus liquid, as well as the liquid layer alone was recorded. The foam and liquid volumes were recorded again after 5 minutes. All tests were performed in triplicate.

Data set [7] is described as follows: High-shear foaming of N-alkyl-N-methylglucamines in commercial blender. It counts as physicochemical. Particulars: 1 wt % test substance in 10 wt % SDS, diluted to 0.05 wt % surfactant. The protocol:
The high-shear foaming behavior of linear and branched N-alkyl-N glucamines was investigated, as this can have an impact on their performance in home care applications. […] The solutions were heated to 80° C., ultrasonicated for 1 h, and cooled to room temperature. Finally, the as-obtained solutions were diluted with MilliQ water to obtain a 0.05 wt % surfactant solution. In agreement with the literature on branched hydrophobes, the high-shear foaming tests performed in the commercial blender indicate that the linear N-decyl-N-methylglucamine (IC10 NMG) solution foams relatively more than its branched counterpart solution. For all solutions, the initial foam volume is between 40 and 53 mL. Lauramine oxide (LAO) appears to be foamier than the N-alkyl-N-methylglucamines.

Setting [8] is: NaCl 0 wt %, 1.4% amine oxide, 4.3% SLS, 4.3% SLES.
Where [9] appears, read: Persil Original 4.2 ml/L + 2% additive.

Like-named read-outs stand apart in the source and are kept apart here. Where only a bound is given, the exact number is not on record here.

Regarding `CCCCC(CC)CC(C)C[N+](C)(C)[O-]` (stereo not shown) [Example 65, 4-ethyl-N,N-2-trimethyloctan-1-amine oxide], the “foam in the wash solution” value in data set [1] was “very little foam”. Also, the “Foam volume (ml) 5 min” value in data set [2] is 0 mL. Moreover, in data set [2], the “Foam volume (ml) Initial” value turned out to be 267 mL. Besides, the “% decrease” value in data set [2] worked out at 100%. Besides, in data set [3], the Wet out time is >300 s. In addition, the Viscosity in data set [4] (setting [8]) is 2 cP; in data set [4] (NaCl 0.5 wt %), 7 cP; in data set [4] (NaCl 1.0 wt %), 36 cP; in data set [4] (NaCl 1.5 wt %), 257 cP; in data set [4] (NaCl 2.0 wt %), 2,050 cP; in data set [4] (NaCl 2.5 wt %) it was 3,635 cP. For the same compound, the Viscosity in data set [4] (NaCl 3.0 wt %) was 3,459 cP; in data set [4] (NaCl 3.5 wt %), 2,021 cP; in data set [4] (NaCl 4.0 wt %), 670 cP; in data set [4] (NaCl 4.5 wt %) it was 288 cP; in data set [4] (NaCl 5.0 wt %), 148 cP.

In the case of `CCCCC(CC)CC(CC)C[N+](C)(C)[O-]` (stereo not shown) [Example 66, 2,4-diethyl-N,N-dimethyloctan-1-amine oxide], in data set [2], the “Foam volume (ml) 5 min” value turned out to be 0 mL, the “Foam volume (ml) Initial” value is 370 mL and the “% decrease” value was 100%. In data set [3], the Wet out time is >300 s. Further, the “Zein score - normalized to LAE10” value in data set [5] (corn, 30 min, 1 %) amounted to 0.018. Also, in data set [6] (Persil + 2% additive), the “Foam volume After 5 min” value stood at 303 mL and the Difference is recorded as 257. The Difference in data set [6] (Persil + 5% additive) is reported as 280. In addition, in data set [6] (setting [9]), the “Initial foam volume” value came to 560 mL.

Take `CCCCCCCCCCCC[N+](C)(C)[O-]` [LAO, N,N-dimethyl laurylamine oxide, reference compound]: the “Foam volume (ml) 5 min” value in data set [2] was found to be 500 mL. For the same compound, in data set [2], the “Foam volume (ml) Initial” value was determined as 523 mL. Further, the “% decrease” value in data set [2] was found to be 4%. In addition, the Wet out time in data set [3] was 33 s. The Viscosity in data set [4] (setting [8]) was 2 cP; in data set [4] (NaCl 0.5 wt %), 2 cP; in data set [4] (NaCl 1.0 wt %), 11 cP; in data set [4] (NaCl 1.5 wt %) it was 115 cP; in data set [4] (NaCl 2.0 wt %), 1,494 cP; in data set [4] (NaCl 2.5 wt %), 7,562 cP. The Viscosity in data set [4] (NaCl 3.0 wt %) is recorded as 17,343 cP; in data set [4] (NaCl 3.5 wt %), 25,302 cP; in data set [4] (NaCl 4.0 wt %), 27,585 cP; in data set [4] (NaCl 4.5 wt %), 24,918 cP; in data set [4] (NaCl 5.0 wt %), 19,368 cP. Further, the “Zein score - normalized to LAE10” value in data set [5] (1% surfactant solution, 30 C, 30 minutes) was determined as 4.212. Also, the results for the “Foam volume After 5 min” value in data set [6] (Persil + 2% additive) and in data set [6] (Persil + 5% additive) were 473 mL and 507 mL, respectively. For the same compound, the Difference is 54 in data set [6] (Persil + 2% additive) and 6 in data set [6] (Persil + 5% additive). In addition, the “Initial foam volume” value in data set [6] (setting [9]) is 527 mL; in data set [6] (Persil Original 4.2 ml/L + 5% additive) it was 513 mL. In addition, the “Foam volume after 5 seconds stirring at speed 1” value in data set [7] came out at 53 mL. Further, in data set [7], the “Foam volume after 5 minutes settling” value is on record as 50 mL.
